In ChEMBL document CHEMBL3593184, “Synthesis of (2-amino)ethyl derivatives of quercetin 3-O-methyl ether and their antioxidant and neuroprotective effects” (Bioorg Med Chem, 2015):

Columns and labels:
Liver microsome = assay: Antioxidant activity in rat liver microsomes assessed as reduction in iron-ascorbic acid-induced lipid […] activity after 30 mins by TBARS assay; assay type: functional; settings: 0.5 h
[1] = Antioxidant activity assessed as DPPH radical scavenging activity after 30 min; assay type: physicochemical; settings: DPPH radical solution
[2] = Antioxidant activity assessed as superoxide anion radical scavenging activity after 20 mins by xanthine/xanthine oxidase method; assay type: physicochemical
Rattus norvegicus [3] = assay: (§1) Neuroprotective activity against middle cerebral artery occlusion-induced focal cerebral ischemia in Sprague-Dawley rat assessed as reduction in absolute infarct total volume at 10 mg/kg, iv administered 30 mins after MCA occlusion measured after 2 hrs of reperfusion by TTC staining (reference value: 237.4 +/- 13.1 mm'3); assay type: functional
Rattus norvegicus [4] = assay: as §1, with “corrected total” for “absolute”, “infarct” for “infarct total”, “163.2” for “237.4”, “9.4” for “13.1”; assay type: functional
Rattus norvegicus [5] = assay: as §1, with “infarct” for “infarct total”, “volume in striatum” for “volume”, “41.9” for “237.4”, “29” for “13.1”; assay type: functional
[6] = Aqueous solubility of the compound at room temperature by HPLC; assay type: physicochemical; settings: water
Rattus norvegicus [7] = assay: as §1, with “infarct” for “infarct total”, “volume in cortex” for “volume”, “195.6” for “237.4”, “11.5” for “13.1”; assay type: functional
Rattus norvegicus [8] = assay: Neuroprotective activity against middle cerebral artery occlusion-induced focal cerebral ischemia in Sprague-Dawley rat assessed as reduction in edema at 10 mg/kg, iv administered 30 mins after MCA occlusion measured after 2 hrs of reperfusion by TTC staining (reference value: 13 +/- 0.7 %); assay type: functional; design: scale not given: the % may be the effect or the level left

Row | SMILES | IC50 (Liver microsome) | IC50 [1] | IC50 [2] | Activity (Rattus norvegicus [3]) | Activity (Rattus norvegicus [4]) | Activity (Rattus norvegicus [5]) | solubility [6] | Activity (Rattus norvegicus [7]) | Activity (Rattus norvegicus [8])
1 | COc1c(-c2cc(O)c(O)c(O)c2)oc2cc(OCCN3CCOCC3)cc(O)c2c1=O | 10.2 µM | 26 µM | > 100 µM | – | – | – | – | – | –
2 | CCN(CC)CCOc1cc(O)c2c(=O)c(OC)c(-c3cc(O)c(O)c(O)c3)oc2c1.Cl | 11.5 µM | 22.9 µM | > 100 µM | 164 mm3 | 108.9 mm3 | 39.3 mm3 | > 50 mM | 123.4 mm3 | 9.4%
3 | COc1c(-c2ccc(O)c(O)c2)oc2cc(O)cc(OCCN3CCCCC3)c2c1=O | 25.1 µM | > 100 µM | 5.8 µM | – | – | – | – | – | –
4 | COc1c(-c2ccc(O)c(O)c2)oc2cc(OCCN3CCOCC3)cc(O)c2c1=O | 16.2 µM | 47.2 µM | 7.41 µM | – | – | – | – | – | –
5 | COc1c(-c2cc(O)c(O)c(O)c2)oc2cc(O)cc(OCCN3CCCC3)c2c1=O | 10.9 µM | 27 µM | > 100 µM | – | – | – | – | – | –
6 | CCN(CC)CCOc1cc(O)cc2oc(-c3ccc(O)c(O)c3)c(OC)c(=O)c12 | 23.3 µM | > 100 µM | 6.53 µM | – | – | – | – | – | –
7 | COc1c(-c2ccc(O)c(O)c2)oc2cc(O)cc(O)c2c1=O [3-O-METHYLQUERCETIN] | 19 µM | 14.2 µM | 17.4 µM | 108.8 mm3 | 78.8 mm3 | 27.2 mm3 | > 50 mM | 79.9 mm3 | 5.5%
8 | COc1c(-c2cc(O)c(O)c(O)c2)oc2cc(OCCN3CCCCC3)cc(O)c2c1=O | 10.5 µM | 26.3 µM | > 100 µM | – | – | – | – | – | –
9 | COc1c(-c2ccc(O)c(O)c2)oc2cc(OCCN3CCCCC3)cc(O)c2c1=O.Cl | 19.2 µM | 20.7 µM | 8.15 µM | 128.9 mm3 | 92.1 mm3 | 30.1 mm3 | > 50 mM | 93.6 mm3 | 6.7%
10 | COc1c(-c2cc(O)c(O)c(O)c2)oc2cc(O)cc(OCCN3CCOCC3)c2c1=O | 12 µM | 23.2 µM | > 100 µM | – | – | – | – | – | –
11 | CCN(CC)CCOc1cc(O)cc2oc(-c3cc(O)c(O)c(O)c3)c(OC)c(=O)c12 | 11.2 µM | 22.1 µM | > 100 µM | – | – | – | – | – | –
12 | COc1c(-c2cc(O)c(O)c(O)c2)oc2cc(OCCN3CCCC3)cc(O)c2c1=O | 10.1 µM | 16.8 µM | > 100 µM | – | – | – | – | – | –
13 | COc1c(-c2ccc(O)c(O)c2)oc2cc(OCCN3CCCC3)cc(O)c2c1=O | 21.8 µM | 18.9 µM | 11.4 µM | – | – | – | – | – | –
14 | COc1c(-c2ccc(O)c(O)c2)oc2cc(O)cc(OCCN3CCCC3)c2c1=O | 23.3 µM | 84 µM | 4.58 µM | – | – | – | – | – | –
15 | COc1c(-c2cc(O)c(O)c(O)c2)oc2cc(O)cc(OCCN3CCCCC3)c2c1=O | 11.9 µM | 32.4 µM | > 100 µM | – | – | – | – | – | –
16 | COc1c(-c2ccc(O)c(O)c2)oc2cc(O)cc(OCCN3CCOCC3)c2c1=O | 37.4 µM | > 100 µM | 11.2 µM | – | – | – | – | – | –
17 | O=C1O[C@H]([C@@H](O)CO)C(O)=C1O [ASCORBIC ACID] | – | 41 µM | > 50 µM | – | – | – | – | – | –
18 | CCN(CC)CCOc1cc(O)c2c(=O)c(OC)c(-c3ccc(O)c(O)c3)oc2c1 | 15.8 µM | 27.4 µM | 8.14 µM | – | – | – | – | – | –
